Laboratory results as given in patent publication US7267994B2, “Element-coded affinity tags” (Regents of the University of California, priority 2003, dated 2007).

Columns and labels:
antibody 2D12.5 [1] = test: relative binding curves of 2D12.5 for Y-DOTA isomers and side chain variants; parameters: species or system murine; details: for relative binding affinity for 2D12.5, isomers: coordinated metal Y^3+, FIG. 15; for relative binding affinity for 2D12.5, side chain location: Y-DOTA molecule with different side chain locations, FIG. 6
Excerpt: FIG. 6 is a graphical display showing the relative binding curves of an exemplary metal chelate, the Y-DOTA molecule, with different side chain locations. […] Evaluation of the crystal structure seems to indicate that shorter substitutions at this position may bind with higher affinity. Substitutions at other locations may yield reasonably high affinities as well. The (5-Amino-2-methoxy-phenyl)-carboxymethyl)-DOTA analyzed in this experiment was racemic, so it is not clear which isomer binds with higher affinity. The low pKa of the carboxymethyl proton makes it difficult to prepare a chirally pure molecule.
FIG. 15 is a graphical display showing the relative binding curves of 2D12.5 for Y-DOTA isomers and Y-DTPA. 2D12.5 binds both the (R)- and (S)- isomers of 2-(4-nitrobenzyl)-DOTA when the coordinated metal is Y^3+ (the same behavior is expected for the other rare earths). The (S)-isomer confers Λ-helicity, while the (R)-isomer confers Δ-helicity to the acetate arms. […] Y-DOTA (no-sidearm) exists is solution as a racemic mixture of the coordination isomers.

antibody 2D12.5 [2] = test: competitive immunoassay (ELISA) of metal-DOTA complexes relative to Y-DOTA; assay type: binding, murine; details: metal complexes of [S]-2-(p-nitrobenzyl)-DOTA, 37° C.
Excerpt: FIG. 13 is graphical display showing the relative binding of metal-DOTA complexes to antibody 2D12.5. A representative set of competitive binding curves obtained from ELISA experiments described in Example 3 below. Error bars (representing the standard error of the mean) are shown, but are generally smaller than the data points.
To determine the metal selectivity of the antibody 2D12.5, a competitive immunoassay was used to measure the binding constants of multiple metal-DOTA complexes relative to Y^3+-DOTA.
We examined the monoclonal antibody 2D12.5, initially developed to bind specifically to Y-DOTA for targeted radiotherapy (see, e.g., Goodwin et al., Cancer Res. 54: 5937-5946 (1994)), in order to determine the scope of its activity. To assess the metal selectivity of antibody 2D12.5, a competitive immunoassay to measure the binding constants of various metal-DOTA complexes relative to the original Y^3+ complex was developed (FIG. 13). Briefly, 2D12.5 was incubated at 37° C. in the presence of immobilized Y-DOTA and a soluble metal-DOTA competitor. The metal-DOTA concentration was varied from μM to pM in order to determine the relative binding affinity of 2D12.5 for each metal chelate in comparison to Y-DOTA. Binding was measured by standard methods known to those of skill in the art. […]
Target sequence in this assay (as listed by the source): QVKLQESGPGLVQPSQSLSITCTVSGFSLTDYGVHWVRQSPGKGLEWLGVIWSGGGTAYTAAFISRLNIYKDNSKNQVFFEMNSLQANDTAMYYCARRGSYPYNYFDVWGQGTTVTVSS
Target sequence in this assay (as listed by the source): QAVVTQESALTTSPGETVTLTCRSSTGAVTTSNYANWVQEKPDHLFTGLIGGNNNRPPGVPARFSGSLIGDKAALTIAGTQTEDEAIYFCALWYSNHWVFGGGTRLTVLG

Row | Compound | relative binding affinity for 2D12.5, isomers (antibody 2D12.5 [1]) | relative binding affinity for 2D12.5, side chain location (antibody 2D12.5 [1]) | binding to 2D12.5 compared with the Y^3+ complex (antibody 2D12.5 [2]) | binding to 2D12.5 compared with the Y^3+ complex (antibody 2D12.5 [2]; listed as Gd^3+)
1 | O=C(O)CN1CCN(CC(=O)O)CCN(CC(=O)O)C(Cc2ccc([N+](=O)[O-])cc2)CN(CC(=O)O)CC1 (single isomer, unassigned; isomer 2) [(R)-isomer, 2-(4-nitrobenzyl)-DOTA] | affinity decreases less than an order of magnitude | – | – | –
2 | O=C(O)CN1CCN(CC(=O)O)CCN(CC(=O)O)[C@@H](Cc2ccc([N+](=O)[O-])cc2)CN(CC(=O)O)CC1 [(S)-2-(4-nitrobenzyl)-DOTA, (S)-2-(4-nitro-benzyl)-1,4,7,10-tetraazacyclododecane-N,N′,N″,N′″-tetraacetic acid] | preferred isomer for binding | clearly stronger | – | –
3 | (5-Amino-2-methoxy-phenyl)-carboxymethyl)-DOTA | – | still sufficiently strong | – | –
4 | Gd-DOTA | – | – | bind more tightly than the original Y^3+ complex | strongest binders
